US7368461B2 (AstraZeneca AB, priority 2001, dated 2008)
Where “and” joins values, the source holds several entries; their conditions need not be identical. Identical values can stand only once.

How the values were obtained:
[1] = molecular target: T1, human NK2 receptors (Homo sapiens, UniProt P21452); test: Receptor binding assay with [3H]NKA in membranes of MEL cells expressing cloned human NK2 receptors; conditions: cloned hNK2 in MEL cell membranes; for Ki: read-out: hNK2 (Ki expressed as -Log Molar) (converted)
T1 construct: expressed in transfected cells; host or cells: MEL cells (murine erythroleukemia), membranes
T1 sequence (P21452 1-398): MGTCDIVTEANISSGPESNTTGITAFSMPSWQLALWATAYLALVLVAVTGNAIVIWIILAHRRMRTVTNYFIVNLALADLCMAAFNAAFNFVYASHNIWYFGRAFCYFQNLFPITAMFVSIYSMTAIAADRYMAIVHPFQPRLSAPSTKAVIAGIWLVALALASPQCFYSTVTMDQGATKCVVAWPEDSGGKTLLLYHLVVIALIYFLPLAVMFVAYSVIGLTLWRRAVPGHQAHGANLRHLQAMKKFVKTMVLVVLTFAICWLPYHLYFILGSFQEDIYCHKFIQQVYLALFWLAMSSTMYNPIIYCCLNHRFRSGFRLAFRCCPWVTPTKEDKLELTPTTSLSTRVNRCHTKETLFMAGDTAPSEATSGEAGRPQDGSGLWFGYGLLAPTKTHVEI
Experimental: (§1) Preparation of Membranes from MEL Cells Transfected with Cloned Human NK1 or NK2 receptors:
(§2) The cloning of the human lung NK1 and NK2 receptors was achieved as described by Hopkins, et al., Biochem. Biophys. Res. Commun. 180: 1110-1117 (1991), and Graham, et al., Biochem. Biophys. Res. Commun. 177: 8-16 (1991). Heterologous expression and scale-up growth of MEL cells transfected with human tachykinin receptors was performed as described for NK2 receptors by Aharony, et al., Mol. Pharmacol. 45: 9-19, 1994.
(§3) Membranes from recombinant MEL cells expressing NK1 or NK2 receptors were prepared as described by Hopkins, et al., (1991). Briefly, cells were homogenized at 4° C. (Brinkman PT-20 Polytron, setting 3, with one 15 sec burst on ice), in a buffer consisting of 50 mM Tris-HCl (pH7.4), 5 mM KCl, 120 mM NaCl, 10 mM EDTA and containing several protease inhibitors (1 mM phenylmethylsulfonylfluoride; 0.1 mg/ml soybean trypsin inhibitor, and 1 mM iodoacetamide). The homogenate was centrifuged at 1200×g for 45 min at 4° C. to remove cell debris. The supernatant was centrifuged at 48,000×g for 45 min at 4° C. The pellet was resuspended with a glass-Teflon motorized homogenizer in 30 volumes of ice-cold 50 mM Tris-HCl (pH 7.4) buffer.
(§4) Ligand binding assays with [^3H]NKA in MEL cells expressing cloned NK2 receptors or [^3H]SP in MEL cells expressing cloned NK1 receptors, were conducted generally as described by Aharony, et al., Mol. Pharmacol. 45: 9-19, 1994, Aharony, et al., Neuropeptides 23: 121-130 (1992) and Aharony, et al., J. Pharmacol. Exp. Ther. 259: 146-155(1991). In brief, incubations were carried out in assay buffer containing membranes, test compounds, and [^3H] ligand (1.0-1.5 nM). In competition experiments, mixtures (0.315 mL) containing various concentrations of competing agents (agonists, antagonists, or vehicle), were incubated at 25° C. for 30 min., with or without 1 μM unlabeled homogenous ligand (NKA or SP), to define non-specific binding. Reactions were initiated by adding membranes (0.1-0.15 mg protein/final concentration) and were conducted in duplicate. Saturation and kinetic experiments were conducted in triplicate. Separation of receptor-bound and free ligand was accomplished by dilution with 1 mL of wash buffer (20 mM Tris-HCl, pH 7.5) followed immediately by vacuum filtration with a total volume of 10 mL of wash buffer (utilizing a Brandel Cell Harvester MB-48R with Whatman GF/B filters presoaked in 0.1% polyethylenimine).
(§5) The ability of compounds disclosed herein to inhibit the binding of [^3H] ligand is shown by the results disclosed in Table 1.

[2] = molecular target: T2, human NK1 receptors (Homo sapiens, UniProt P25103); test: Receptor binding assay with [3H]SP in membranes of MEL cells expressing cloned human NK1 receptors; conditions: cloned hNK1 in MEL cell membranes; for Ki: read-out: hNK1 (Ki expressed as -Log Molar) (converted)
T2 construct: expressed in transfected cells; host or cells: MEL cells (murine erythroleukemia), membranes
T2 sequence (P25103 whole entry): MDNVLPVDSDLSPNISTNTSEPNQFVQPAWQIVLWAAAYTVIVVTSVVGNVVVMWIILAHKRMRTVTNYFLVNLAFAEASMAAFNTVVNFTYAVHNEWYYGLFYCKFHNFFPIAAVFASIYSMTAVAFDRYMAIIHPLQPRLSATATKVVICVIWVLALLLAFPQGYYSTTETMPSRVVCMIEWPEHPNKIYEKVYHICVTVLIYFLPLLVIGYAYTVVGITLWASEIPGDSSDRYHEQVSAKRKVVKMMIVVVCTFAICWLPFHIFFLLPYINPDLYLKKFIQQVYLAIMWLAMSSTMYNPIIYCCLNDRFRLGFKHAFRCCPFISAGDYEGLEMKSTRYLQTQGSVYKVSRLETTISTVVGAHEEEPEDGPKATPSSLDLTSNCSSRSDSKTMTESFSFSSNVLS
Experimental: as §1, §2, §3, §4, §5

[3] = test system: BANK-induced bladder contraction; test: BANK-induced bladder contraction in anesthetized guinea pigs; type: in vivo, guinea pig; conditions: for Inhibition of BANK-mediated GP bladder contraction (% Inhibition mediated by 52 nM/kg administered orally): anesthetized female guinea pigs, 52 nM/kg orally by gavage 1 hr before BANK 3 nmol/kg iv, mean ± S.E.M.
Experimental: BANK-Induced Bladder Contraction in Anesthetized Guinea Pigs:
Female guinea pigs (300-450 g) were anesthetized by intramuscular administration of ketamine/xylazine mixture (3/10 mg/kg, respectively). The jugular vein was catheterized and the distal end of the catheter connected to a syringe for administration of compound where appropriate. Subsequently, the bladder was exposed through a midline abdominal incision, the ureters tied with 4-0 silk suture approximately 2 cm above the bladder, and cut above the ligature to allow drainage from the kidneys. Cannula were passed through the proximal urethra and bladder sphincter into the bladder lumen. The bladder was manually emptied, infused with 0.3 mL saline, and the catheter attached to a Gould p23 ID pressure transducer for recording changes in bladder pressure. An equilibration period of approximately 15 min was allowed for stabilization of the animals following surgical preparation. Thiorphan (10 mg/kg iv) was administered 15 minutes before agonist exposure to inhibit neutral endopeptidase 3.4.24.11.
The response was allowed to decay during a 15 min equilibration period before intravenous administration of test compound ([…], 5% PEG 400-saline vehicle). An additional 15 min equilibration period elapsed before administration of an equivalent dose of BANK was repeated. Preliminary studies were performed to establish equivalence of bladder contractile responses to multiple administrations of BANK. Effects were calculated as the percentage difference between the response to BANK in the presence and absence of test compounds.
To establish the oral effect of test compounds, animals were administered the test compounds (52 nmol/kg, 5% PEG 400-saline vehicle) by gavage 1 hr before administration of BANK. This was followed by intravenous administration of BANK (3 nmol/kg). Bladder contraction occurring in the presence or absence of test compound was recorded as an increase in intravesical bladder pressure on a Grass 7D Polygraph and expressed as percent inhibition of the BANK-mediated effect. Duration of action studies were performed following oral administration of test compounds ([…], 5% PEG 400-saline vehicle) at different times prior to administration of BANK. Responses were calculated as the percentage difference between the response to BANK in the presence of test compound compared with sham-treated controls. For all studies, each animal was administered a single dose of test compound. Experimental results were expressed as the mean plus or minus the Standard Error of the Mean (±S.E.M) percentage change from basal level.
The ability of compounds disclosed herein to inhibit bladder contractions induced with BANK is shown by the results disclosed in Table 1.

Row | Compound | Ki [1] | Ki [2] | hNK2 (Ki expressed as -Log Molar) [1] | hNK1 (Ki expressed as -Log Molar) [2] | Inhibition of BANK-mediated GP bladder contraction (% Inhibition mediated by 52 nM/kg administered orally) [3] | increase in the bladder contraction induced by BANK ([3]; guinea pig, as shown in Table 1 (52 nM/kg orally)) | inhibition at 10 µM ([2]; 10 μM)
1 | CN(C[C@@H](CCN1CCC(N2CCCCC2=O)CC1)c1ccc(Cl)c(Cl)c1)C(=O)c1ccc(F)cc1 [Example 4, (S)—N-[2-(3,4-Dichlorophenyl)-4-[4-(2-oxo-piperidin-1-yl)piperidino]butyl]-N-methyl-4-fluorobenzamide] | – | – | – | – | −28 ± 45% | 28% | –
2 | CCNC(=O)C1(N2CCCCC2=O)CCN(CC[C@H](CN(C)C(=O)c2ccccc2)c2ccc(Cl)c(Cl)c2)CC1 [Example 6] | 0.2 nM | – | – | – | −65 ± 58% | – | 84%
3 | CN(C[C@@H](CCN1CCC(N2CCCCC2=O)CC1)c1ccc(Cl)c(Cl)c1)C(=O)c1ccccc1F [Example 1, (S)—N-[2-(3,4-Dichloro-phenyl)-4-(2-oxo-[1,4′]bipiperidinyl-1′-yl)-butyl]-2-fluoro-N-methyl-benzamide] | 1.45 nM | 91.2 nM | – | – | 80% and 80 ± 6% | – | –

The next lines start with results.

Row | Ki [1] | Ki [2] | hNK2 (Ki expressed as -Log Molar) [1] | hNK1 (Ki expressed as -Log Molar) [2] | Compound | Inhibition of BANK-mediated GP bladder contraction (% Inhibition mediated by 52 nM/kg administered orally) [3] | increase in the bladder contraction induced by BANK ([3]; guinea pig, as shown in Table 1 (52 nM/kg orally)) | inhibition at 10 µM ([2]; 10 μM)
4 | 3.31 nM | 427 nM | – | – | CN(C[C@@H](CCN1CCC(N2CCCCC2=O)CC1)c1ccc(Cl)c(Cl)c1)C(=O)c1ccccc1 [Example 5, (S)—N-[2-(3,4-Dichlorophenyl)-4-[4-(2-oxo-piperidin-1-yl)piperidino]butyl]-N-methylbenzamide] | – | – | –
5 | – | – | 8.73 -Log Molar | 7.22 -Log Molar | CN(C[C@@H](CCN1CCC(N2CCCCC2=S)CC1)c1ccc(Cl)c(Cl)c1)C(=O)c1ccccc1 [Example 2, (S)—N-[2-(3,4-Dichlorophenyl)-4-[4-(2-thio-piperidin-1-yl)piperidino]butyl]-N-methylbenzamide] | 42 ± 13% | – | –
